Source: patent US10266545B2, “Coumarin derivative as antiviral agent, pharmaceutical composition thereof, its preparation and use” (I-NOVA MEDICINSKA ISTRAZIVANJA D.O.O., priority 2016, dated 2019)
pIC50: −log10 of the molar value.

System: HIV-1
Test: Microtiter infectivity assay: protection of MT-4 cells from cytopathic effect of HIV-1 (MTT)
Format: cell-based, human immunodeficiency virus 1 (HIV-1) subtype B
Conditions: for pIC50: Human immunodeficiency virus 1, MT4, inhibits 50% viral replication; for Survival (% protection): MT-4 cells infected with HIV-1; for SI = CC50/IC50: selectivity index, MT-4 cells, MTT assay
Protocol: The first study of antiviral activity of compound 1 and the control compound 2 was performed on example of its influence on replication of human immunodeficiency virus 1 (HIV-1) by microtiter infectivity assay in cell culture and by evaluation of concentration of compound 1 or 2, which inhibits virus replication by 50% (IC50) as well as by selectivity index (SI).
The cell line used in this study was also the MT-4 cell line as described above.
A microplate assay of infectivity in cell culture, based on consideration of a cytopathic effect of the virus was described in the literature, see reference 8. At least 4 different concentrations: 10×MNC, MNC^−1, MNC^−2, and MNC^−3 were used.
In each trial, the following controls were set: • (i) cell control—only cells in culture medium and not infected with the virus; and • (ii) viral control—one column to cells infected with the virus were added only medium (200 μl) without the test compound 1 or the control compound 2.
The activity of compound 1 or control compound 2 against the cytopathic effect of HIV-1 was expressed as percentage (%) protection (survival) of the cells defined by the following formula:
[formula] wherein: • ODVS=absorption of cells infected and treated with compound 1 or 2 • ODVC=absorption of the virus-infected cells (virus control without compound 1 or 2), and • ODCC=absorption of uninfected cells (cell control)
The inhibitory concentration 50% (IC50) was defined as the concentration of test compound 1 or control compound 2, expressed in mM, which inhibits 50% viral replication. IC50 was determined directly from the curve “dose (concentration)—response (anti-HIV effect)”. The IC50 was expressed as percentage (%) of: • (i) cell viability which was obtained by the MTT assay; or • (ii) percentage (%) inhibition of enzyme reverse transcriptase (RT) activity.
On the basic of the data about CC50 and IC50 for the test substance 1 or control substance 2, the selectivity index (SI) value was estimated.
The compounds 1 or 2 were dissolved in dimethyl sulfoxide (DMSO; Sigma-Aldrich, USA) to a concentration of 1 mol/l (1 M) and after diluted in cell growth medium RPMI 1640 with 2% heat inactivated fetal bovine serum (FBS; Sigma-Aldrich, USA). All further solutions of compounds 1 or 2 were prepared ex tempore.
MT-4 cell line was not infected with HIV-1 and was used as a classic model for reproduction of acute infection with HIV-1. The cells were cultivated in RPMI 1640 growth medium supplemented with 15% fetal bovine serum (FBS; Sigma-Aldrich, USA), 100 U/ml penicillin G sodium (Sigma-Aldrich, USA), and 100 μg/ml streptomycin sulphate (Sigma-Aldrich, USA).
HIV-1 culture fluid was chronically infected and producing HIV-1 subtype B cell line H9/HTLV III B. The culture fluid was centrifuged and collected as a virus stock. The latter, used in the experiments, was of predetermined infectivity of 2·10^6 infectious virions/ml according to the microtiter infectivity assay based on the cytopathic effect of HIV, through ingestion of MTT, containing protein 24 antigen (p24) and enzyme reverse transcriptase (RT).
After counting the cells, they were resuspended in growth medium at a concentration of 6-8·10^4 cells/100 μl. Followed screening of cell suspensions (100 μl/well of that above) into sterile 96-well plates pretreated with poly-L-lysine (PLL). Since the final volume of the culture medium in each well was 200 μl, additional 100 μl of 10% FBS (containing no cells) was added. At the end of rows and columns were not seeded cells, but only culture medium without FBS.
After 24 h, the supernatant was decanted and added in 50 μl HIV-1 in dilution 10^−1. One or two columns were not infected, acting as the control cells. The plate was placed in an incubator at 37° C. and 5% content of CO2, for 1 h. The virus was then removed and in one or two columns of infected cells were added 200 μl medium containing the appropriate concentration of the test substance 1 or the control substance 2. […]

[1] = MT-4 cells infected with HIV-1, MTT assay

Compound	pIC50 [1]	Survival (% protection) (concentration 0.000001 mM) [%]	Survival (% protection) (concentration 0.00001 mM) [%]	Survival (% protection) (concentration 0.0001 mM) [%]	Survival (% protection) (concentration 0.001 mM) [%]	Survival (% protection) (concentration 0.005 mM) [%]	Survival (% protection) (concentration 0.01 mM (MNC)) [%]	% protection of the MT-4 cells in MNC (Table 3, MT-4 cells infected with HIV-1, MTT assay, at MNC) [%]	SI = CC50/IC50
O=c1oc2cc(O)cc(O)c2c(O)c1-c1coc2c1c(=O)oc1cc(O)cc(O)c12 [Compound 1, 7,9-dihydroxy-3-(4,5,7-trihydroxy-2-oxo-2H-chromene-3-yl)-4H-furo[3,2-c]chromen-4-one]	8.00	0	50	55	60	75	92	100	1000 · 10^3
O=c1oc2cc(O)c(O)cc2c(O)c1-c1coc2c1c(=O)oc1cc(O)c(O)cc12 [Compound 2, 7,8-dihydroxy-3-(4,6,7-trihydroxy-2-oxo-2H-chromen-3-yl)-4H-furo[3,2-c]chromen-4-one, reference compound]	5.30	0	0	0	25	50	55		2 · 10^3
